Where “and” joins values, the source holds several entries; their conditions need not be identical. Identical values can stand only once. Toxic doses and inconclusive results are not listed.
Test system: BDF1 mice, P388 leukemia ip, median survival T/C
Assay: NCI In Vivo Anticancer Drug Screen. Data for tumor model P388 Leukemia (intraperitoneal) in B6D2F1 (BDF1) mice
Settings: endpoint: median survival time, higher = longer survival
Summary of the method: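 Survival ratio, drug arm over vehicle arm, in mice with a transplanted tumour.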

[1] = dose: 100.0 mg/kg/injection, schedule: Q04DX003 (ip), vehicle: Klucel (hydroxypropylcellulose) (HPC)
[2] = dose: 200.0 mg/kg/injection, schedule: Q04DX003 (ip), vehicle: Klucel (hydroxypropylcellulose) (HPC)
[3] = dose: 12.5 mg/kg/injection, schedule: Q01DX009 (ip), vehicle: saline with Tween-80
[4] = dose: 25.0 mg/kg/injection, schedule: Q01DX009 (ip), vehicle: saline with Tween-80
[5] = dose: 50.0 mg/kg/injection, schedule: Q01DX009 (ip), vehicle: saline with Tween-80
[6] = dose: 100.0 mg/kg/injection, schedule: Q01DX009 (ip), vehicle: saline with Tween-80
[7] = dose: 400.0 mg/kg/injection, schedule: Q04DX003 (ip), vehicle: Klucel (hydroxypropylcellulose) (HPC)
[8] = dose: 200.0 mg/kg/injection, schedule: Q04DX003 (ip), vehicle: saline

C[C@@H]1CC[C@@]2(NC1)O[C@H]1C[C@H]3[C@@H]4CC=C5C[C@@H](O)CC[C@]5(C)[C@H]4CC[C@]3(C)[C@H]1[C@@H]2C
T/C (dose: 50.0 mg/kg/injection, schedule: Q04DX003 (ip), vehicle: Klucel (hydroxypropylcellulose) (HPC)): 100 % of control
T/C (dose: 50.0 mg/kg/injection, schedule: Q04DX003 (ip), vehicle: saline sonified): 110 % of control
T/C (dose: 88.0 mg/kg/injection, schedule: Q01DX009 (ip), vehicle: saline with Tween-80): 86 % of control
T/C [1]: 109 % of control
T/C (dose: 100.0 mg/kg/injection, schedule: Q04DX003 (ip), vehicle: saline sonified): 100 % of control
T/C (dose: 132.0 mg/kg/injection, schedule: Q01DX009 (ip), vehicle: saline with Tween-80): 118 % of control
T/C [2]: 104 % of control
T/C (dose: 200.0 mg/kg/injection, schedule: Q04DX003 (ip), vehicle: saline sonified): 105 % of control
T/C (dose: 300.0 mg/kg/injection, schedule: Q01DX009 (ip), vehicle: saline with Tween-80): 95 % of control

COCCn1c2nc(=O)n(-c3ccccc3)c(=O)c-2nc2ccccc21
T/C [3]: 89 % of control
T/C [4]: 114 % of control
T/C [5]: 91 % of control

C[C@]12CC[C@H]3[C@@H](CCC4=CC(=O)CC[C@@]43C)[C@@H]1CC[C@@H]2OC(=O)Cc1ccc(N(CCCl)CCCl)cc1
T/C (dose: 64.0 mg/kg/injection, schedule: Q01DX009 (ip), vehicle: Klucel (hydroxypropylcellulose) (HPC)): 104 % of control and 105 % of control
T/C [6]: 113 % of control
T/C (dose: 128.0 mg/kg/injection, schedule: Q01DX009 (ip), vehicle: Klucel (hydroxypropylcellulose) (HPC)): 111 % of control and 123 % of control
T/C (dose: 256.0 mg/kg/injection, schedule: Q01DX009 (ip), vehicle: Klucel (hydroxypropylcellulose) (HPC)): 157 % of control
T/C (dose: 264.0 mg/kg/injection, schedule: Q04DX003 (ip), vehicle: saline with Tween-80): 120 % of control
T/C (dose: 400.0 mg/kg/injection, schedule: Q01DX009 (ip), vehicle: saline with Tween-80): 209 % of control
T/C (dose: 400.0 mg/kg/injection, schedule: Q04DX003 (ip), vehicle: saline with Tween-80): 154 % of control
T/C (dose: 512.0 mg/kg/injection, schedule: Q01DX009 (ip), vehicle: Klucel (hydroxypropylcellulose) (HPC)): 115 % of control
T/C (dose: 600.0 mg/kg/injection, schedule: Q04DX003 (ip), vehicle: saline with Tween-80): 200 % of control

COC1=C(NCc2ccccc2)C(=O)C(OC)=C(NCc2ccccc2)C1=O
T/C (dose: 100.0 mg/kg/injection, schedule: Q01DX009 (ip), vehicle: Klucel (hydroxypropylcellulose) (HPC)): 90 % of control
T/C [1]: 95 % of control
T/C (dose: 200.0 mg/kg/injection, schedule: Q01DX009 (ip), vehicle: Klucel (hydroxypropylcellulose) (HPC)): 100 % of control
T/C [2]: 86 % of control
T/C (dose: 400.0 mg/kg/injection, schedule: Q01DX009 (ip), vehicle: Klucel (hydroxypropylcellulose) (HPC)): 100 % of control
T/C [7]: 95 % of control

CCOC(=O)CCN(CCN(C)C)c1cc(O)c2c(c1O)C(=O)c1ccccc1C2=O
T/C (dose: 50.0 mg/kg/injection, schedule: Q01DX005 (ip), vehicle: saline with Tween-80): 123 % of control

COc1ccc2c(C)[n+]3ccc4cc(OC)c(OC)cc4c3cc2c1 (tested in a mixture with another compound)
T/C (dose: 25.0 mg/kg/injection, schedule: Q04DX003 (ip), vehicle: saline): 154 % of control
T/C (dose: 33.0 mg/kg/injection, schedule: Q01DX009 (ip), vehicle: saline): 186 % of control
T/C (dose: 50.0 mg/kg/injection, schedule: Q01DX009 (ip), vehicle: saline): 181 % of control
T/C (dose: 50.0 mg/kg/injection, schedule: Q04DX003 (ip), vehicle: saline): 154 % of control and 181 % of control
T/C (dose: 75.0 mg/kg/injection, schedule: Q01DX009 (ip), vehicle: saline): 118 % of control
T/C [8]: 150 % of control

O=c1[nH]ccc2c(O)cccc12
T/C [5]: 96 % of control
T/C (dose: 50.0 mg/kg/injection, schedule: Q04DX003 (ip), vehicle: saline with Tween-80): 100 % of control
T/C [6]: 92 % of control
T/C (dose: 100.0 mg/kg/injection, schedule: Q04DX003 (ip), vehicle: saline with Tween-80): 95 % of control
T/C (dose: 200.0 mg/kg/injection, schedule: Q01DX009 (ip), vehicle: saline with Tween-80): 96 % of control
T/C (dose: 200.0 mg/kg/injection, schedule: Q04DX003 (ip), vehicle: saline with Tween-80): 91 % of control

O=C1OC(=O)C2C1C1(Cl)C(Cl)=C(Cl)C2(Cl)C2C(=O)OC(=O)C21 (configuration not stated)
T/C (dose: 100.0 mg/kg/injection, schedule: Q04DX003 (ip), vehicle: saline): 91 % of control
T/C [8]: 108 % of control
T/C (dose: 400.0 mg/kg/injection, schedule: Q04DX003 (ip), vehicle: saline): 104 % of control

COC(=O)c1sccc1C=O
T/C [1]: 96 % of control
T/C [2]: 96 % of control
T/C [7]: 92 % of control

COCC1OC(OC2OCC3OC4(OCC(O)(C(C)OC)C5OCOC54)OC3C2OC)C(OC)C(O)C1OC1OC(C)C(OC)C(OC2OC(C)C3OC4(CC(O)C(OC5CC(OC6CC(C)([N+](=O)[O-])C(OC)C(C)O6)C(OC(=O)c6c(C)c(Cl)c(O)c(Cl)c6OC)C(C)O5)C(C)O4)OC3(C)C2O)C1O (configuration not stated)
T/C (dose: 12.5 mg/kg/injection, schedule: Q01DX009 (ip), vehicle: saline): 115 % of control

CS(=O)(=O)OCCNC[C@@H](O)[C@@H](O)CNCCOS(C)(=O)=O
T/C (dose: 0.17 mg/kg/injection, schedule: Q04DX003 (ip), vehicle: saline): 121 % of control
T/C (dose: 0.26 mg/kg/injection, schedule: Q04DX003 (ip), vehicle: saline): 117 % of control
T/C (dose: 0.4 mg/kg/injection, schedule: Q04DX003 (ip), vehicle: saline): 154 % of control
T/C (dose: 0.6 mg/kg/injection, schedule: Q04DX003 (ip), vehicle: saline): 170 % of control
T/C (dose: 0.92 mg/kg/injection, schedule: Q04DX003 (ip), vehicle: saline): 175 % of control
T/C (dose: 1.3 mg/kg/injection, schedule: Q04DX003 (ip), vehicle: saline): 175 % of control
T/C (dose: 2.1 mg/kg/injection, schedule: Q04DX003 (ip), vehicle: saline): 186 % of control
T/C (dose: 3.1 mg/kg/injection, schedule: Q04DX003 (ip), vehicle: saline): 168 % of control
T/C (dose: 11.0 mg/kg/injection, schedule: Q04DX003 (ip), vehicle: saline): 200 % of control
T/C (dose: 16.0 mg/kg/injection, schedule: Q04DX003 (ip), vehicle: saline): 243 % of control
T/C (dose: 33.0 mg/kg/injection, schedule: Q04DX003 (ip), vehicle: saline): 300 % of control and 118 % of control

CSc1nc2n(Cc3c[nH]c(=O)[nH]c3=O)cc(C)cc-2c(=O)n1
T/C (dose: 6.25 mg/kg/injection, schedule: Q01DX009 (ip), vehicle: saline with Tween-80): 101 % of control
T/C [3]: 102 % of control
T/C [4]: 95 % of control
T/C [5]: 93 % of control
T/C (dose: 100.0 mg/kg/injection, schedule: Q01DX001 (ip), vehicle: saline with Tween-80): 113 % of control
T/C (dose: 200.0 mg/kg/injection, schedule: Q01DX001 (ip), vehicle: saline with Tween-80): 106 % of control

C=CC(OC(C)=O)OC(C)=O
T/C (dose: 6.0 mg/kg/injection, schedule: Q01DX009 (ip), vehicle: saline with Tween-80): 104 % of control
T/C (dose: 8.0 mg/kg/injection, schedule: Q01DX009 (ip), vehicle: saline with Tween-80): 115 % of control
T/C (dose: 12.0 mg/kg/injection, schedule: Q01DX009 (ip), vehicle: saline with Tween-80): 111 % of control
T/C (dose: 12.5 mg/kg/injection, schedule: Q04DX003 (ip), vehicle: saline with Tween-80): 108 % of control
T/C (dose: 18.0 mg/kg/injection, schedule: Q01DX009 (ip), vehicle: saline with Tween-80): 100 % of control
T/C (dose: 25.0 mg/kg/injection, schedule: Q04DX003 (ip), vehicle: saline with Tween-80): 117 % of control

BrCC1CCCO1 (configuration not stated)
T/C [4]: 101 % of control
T/C [5]: 110 % of control

Source: PubChem BioAssay AID328 (DTP/NCI, 2004)
